The text below walks through data of patent publication US11180496B2 (Daewoong Pharmaceutical Co., Ltd., priority 2017, dated 2021).

Structures are written as SMILES.

As a reminder, the IC50 is the concentration that inhibits the measured activity by half.

The target of one test is T1, BTK (Homo sapiens, UniProt Q06187).
T1 construct: purchased Promega
As to the kind of experiment: BTK inhibitory activity, ADP-Glo + BTK Kinase enzyme system kit (Promega). The format is biochemical. The note with it: BTK enzyme 1 ng/uL, ATP 10 uM, 15 min preincubation, luminescence, duplicate. As for the experimental part: (§1) The inhibitory activity against BTK and ITK of the compounds prepared in Examples above were measured as follows.
(§2) The inhibitory activity against BTK was evaluated using ‘ADP-Glo™+BTK Kinase enzyme system’ kit from Promega. […] 5 uL of substrate and 5 uL of ATP prepared at a final concentration of 10 uM were added to all wells of the plate after completion of the reaction, and allowed to react at 30° C. for 1 hour. All wells of the plate after completion of the reaction were treated with 25 uL of ADP-Glo™ reagent and reacted at 30° C. for 40 minutes. Then, 50 uL of the kinase detection buffer was applied to all wells of the plate, and then the light was blocked and reacted at 30° C. for 30 minutes. For the plate for which all reactions were completed, the luminescence was measured and the results were calculated. The evaluation was performed in duplicate. The respective values of negative and positive controls, depending on whether the enzymes were added without treatment of the compound, were determined, and IC50 was calculated based on the values.
A general note: In ADP-Glo the light output rises with the ADP produced.

The target in a further test is T2, ITK (Homo sapiens, UniProt Q08881).
T2 construct: purchased Promega
T2 sequence (Q08881 1-620): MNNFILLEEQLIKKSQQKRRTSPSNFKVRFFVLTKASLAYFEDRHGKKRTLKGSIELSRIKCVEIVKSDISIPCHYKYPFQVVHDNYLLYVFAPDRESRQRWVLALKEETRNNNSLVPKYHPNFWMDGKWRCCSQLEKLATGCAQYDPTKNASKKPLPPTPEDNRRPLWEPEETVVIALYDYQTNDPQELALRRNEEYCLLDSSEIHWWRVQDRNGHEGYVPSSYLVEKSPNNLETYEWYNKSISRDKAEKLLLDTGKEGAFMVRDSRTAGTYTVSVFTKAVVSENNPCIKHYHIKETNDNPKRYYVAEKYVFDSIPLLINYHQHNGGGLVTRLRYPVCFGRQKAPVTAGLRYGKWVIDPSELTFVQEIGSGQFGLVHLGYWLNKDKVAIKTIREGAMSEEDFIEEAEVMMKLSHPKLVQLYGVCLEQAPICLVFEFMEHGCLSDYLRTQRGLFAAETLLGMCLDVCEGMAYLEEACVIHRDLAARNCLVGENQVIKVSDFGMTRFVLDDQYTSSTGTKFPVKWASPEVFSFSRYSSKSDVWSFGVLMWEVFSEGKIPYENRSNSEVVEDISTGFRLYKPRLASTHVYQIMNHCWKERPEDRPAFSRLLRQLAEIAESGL
As to the kind of experiment: ITK inhibitory activity, ADP-Glo + ITK Kinase enzyme system kit (Promega). The test is classed as biochemical. The settings on record: ITK enzyme 0.4 ng/uL, ATP 25 uM, 15 min preincubation, luminescence, duplicate. As for the experimental part:
as §1
as §2, with “ITK” for “BTK”, “‘ADP-Glo™+ITK” for “‘ADP-Glo™+BTK”, “25” for “10”

T1 sequence (Q06187 whole entry): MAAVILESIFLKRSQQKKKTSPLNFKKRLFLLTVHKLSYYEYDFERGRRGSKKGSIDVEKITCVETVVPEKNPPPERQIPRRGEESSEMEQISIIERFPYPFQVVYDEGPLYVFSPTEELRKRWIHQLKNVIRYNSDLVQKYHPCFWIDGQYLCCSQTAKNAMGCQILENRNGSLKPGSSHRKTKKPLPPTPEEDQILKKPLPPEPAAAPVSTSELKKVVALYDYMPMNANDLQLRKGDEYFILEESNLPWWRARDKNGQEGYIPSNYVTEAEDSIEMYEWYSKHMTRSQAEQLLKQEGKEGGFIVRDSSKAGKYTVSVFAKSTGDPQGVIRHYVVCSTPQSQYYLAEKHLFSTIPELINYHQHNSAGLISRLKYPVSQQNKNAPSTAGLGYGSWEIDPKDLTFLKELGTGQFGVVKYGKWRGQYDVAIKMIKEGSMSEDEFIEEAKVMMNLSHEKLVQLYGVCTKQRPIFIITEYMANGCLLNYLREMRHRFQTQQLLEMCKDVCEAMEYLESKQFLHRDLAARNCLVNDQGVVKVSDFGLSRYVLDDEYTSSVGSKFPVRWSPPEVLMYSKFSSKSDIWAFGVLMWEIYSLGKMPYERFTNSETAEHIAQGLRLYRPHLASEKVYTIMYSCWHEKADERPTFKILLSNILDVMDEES

As for `C=CC(=O)N1CCC[C@@H](n2nc(-c3ccc(C(=O)Nc4ccccc4)cc3)c3c(N)ncc(Cl)c32)C1` [Example 23, (R)-4-(1-(1-acryloylpiperidin-3-yl)-4-amino-7-chloro-1H-pyrazolo[4,3-c]pyridin-3-yl)-N-phenyl benzamide], the IC50 worked out at 1.2 nM on BTK and 48 nM on ITK.

With `C=CC(=O)N1CCC[C@@H](n2nc(-c3ccc(C(=O)Nc4ccccn4)cc3Cl)c3c(N)ncc(I)c32)C1` [Example 65, (R)-4-(1-(1-acryloylpiperidin-3-yl)-4-amino-7-iodo-1H-pyrazolo[4,3-c]pyridin-3-yl)-3-chloro-N-(pyridin-2-yl)benzamide], the IC50 on BTK turned out to be 0.4 nM; on ITK it was 1.3 nM.

Take `C=CC(=O)N1CCC[C@@H](n2nc(-c3ccc(C(=O)Nc4ccccn4)cc3Cl)c3c(N)ncc(-c4cnn(C)c4)c32)C1` [Example 67, (R)-4-(1-(1-acryloylpiperidin-3-yl)-4-amino-7-(1-methyl-1H-pyrazol-4-yl)-1H-pyrazolo[4,3-c]pyridin-3-yl)-3-chloro-N-(pyridin-2-yl)benzamide]: the IC50 at BTK came to 2 nM; at ITK it was 2.7 nM.

As for `C=CC(=O)N1CCC[C@@H](n2nc(-c3ccc(C(=O)Nc4ccccc4)cc3)c3c(N)ncc(-c4cnn(CCN5CCOCC5)c4)c32)C1` [Example 38, (R)-4-(1-(1-acryloylpiperidin-3-yl)-4-amino-7-(1-(2-morpholinoethyl)-1H-pyrazol-4-yl)-1H-pyrazolo[4,3-c]pyridin-3-yl)-N-phenyl benzamide], the IC50 came out at 2.6 nM on BTK and 186 nM on ITK.

Consider `C=CC(=O)N1CC(n2nc(-c3ccc(C(=O)Nc4ccccn4)cc3Cl)c3c(N)nccc32)C1` [Example 63, 4-(1-(1-acryloylazetidin-3-yl)-4-amino-1H-pyrazolo[4,3-c]pyridin-3-yl)-3-chloro-N-(pyridin-2-yl)benzamide], for which the IC50 came out at 3.1 nM at BTK and 30.1 nM on ITK.

Turning to `C=CC(=O)N1CCC[C@@H](n2nc(-c3ccc(C(=O)N(C(=O)C=C)c4cc(F)ccn4)cc3)c3c(N)nccc32)C1` [Example 42, (R)—N-acryloyl-4-(1-(1-acryloylpiperidin-3-yl)-4-amino-1H-pyrazolo[4,3-c]pyridin-3-yl)-N-(4-fluoropyridin-2-yl)benzamide], the IC50 was determined as 66.3 nM at BTK and 241 nM on ITK.

`C=CC(=O)N1CCC[C@@H](n2nc(-c3ccc(C(=O)Nc4ccccn4)cc3)c3c(N)nccc32)C1` [Example 18, (R)-4-(1-(1-acryloylpiperidin-3-yl)-4-amino-1H-pyrazolo[4,3-c]pyridin-3-yl)-N-(pyridin-2-yl)benzamide]: the IC50 on BTK is 1 nM; on ITK, 26.4 nM.

`C=CC(=O)N1CCC[C@@H](n2nc(-c3ccc(C(=O)Nc4ccccc4)cc3)c3c(N)ncc(-c4cnn(C5CCOCC5)c4)c32)C1` [Example 34, (R)-4-(1-(1-acryloylpiperidin-3-yl)-4-amino-7-(1-(tetrahydro-2H-pyran-4-yl)-1H-pyrazol-4-yl)-1H-pyrazolo[4,3-c]pyridin-3-yl)-N-phenylbenzamide]: the values for the IC50 at BTK and on ITK were 2.3 nM and 293 nM, respectively.

For the compound `C=CC(=O)N1CC(n2nc(-c3ccc(C(=O)Nc4ccccn4)cc3F)c3c(N)ncc(Cl)c32)C1` [Example 60, 4-(1-(1-acryloylazetidin-3-yl)-4-amino-7-chloro-1H-pyrazolo[4,3-c]pyridin-3-yl)-3-fluoro-N-(pyridin-2-yl)benzamide], the results for the IC50 at BTK and on ITK were 0.4 nM and 263 nM, respectively.

On to `C=CC(=O)N1CCC[C@@H](n2nc(C(=O)Nc3ccccc3)c3c(N)ncc(Cl)c32)C1` [Example 78, (R)-1-(1-acryloylpiperidin-3-yl)-4-amino-7-chloro-N-phenyl-1H-pyrazolo[4,3-c]pyridine-3-carboxamide], for which the IC50 at BTK stood at 22.1 nM; at ITK, 27 nM.

As for `C=CC(=O)N1CCC[C@@H](n2nc(-c3ccc(C(=O)Nc4ccccn4)cc3Cl)c3c(N)ncc(CC)c32)C1` [Example 68, (R)-4-(1-(1-acryloylpiperidin-3-yl)-4-amino-7-ethyl-1H-pyrazolo[4,3-c]pyridin-3-yl)-3-chloro-N-(pyridin-2-yl)benzamide], the values for the IC50 at BTK and on ITK were 0.9 nM and 1.7 nM, respectively.

With `C=CC(=O)N1CCC[C@@H](n2nc(-c3ccc(C(=O)Nc4cc(F)ccn4)cc3)c3c(N)nccc32)C1` [Example 41, (R)-4-(1-(1-acryloylpiperidin-3-yl)-4-amino-1H-pyrazolo[4,3-c]pyridin-3-yl)-N-(4-fluoropyridin-2-yl)benzamide], the IC50 was found to be 1.5 nM at BTK and 10.1 nM on ITK.

For the compound `C=CC(=O)N1CCC[C@@H](n2nc(-c3ccc(C(=O)Nc4ccccc4)cc3)c3c(N)nccc32)C1` [Example 22, (R)-4-(1-(1-acryloylpiperidin-3-yl)-4-amino-1H-pyrazolo[4,3-c]pyridin-3-yl)-N-phenyl benzamide], the IC50 worked out at 2.5 nM at BTK and 131 nM on ITK.

`C=CC(=O)N1CCC[C@@H](n2nc(-c3ccc(C(=O)Nc4ccccc4)cc3)c3c(N)ncc(-c4ccsc4)c32)C1` [Example 31, (R)-4-(1-(1-acryloylpiperidin-3-yl)-4-amino-7-(thiophen-3-yl)-1H-pyrazolo[4,3-c]pyridin-3-yl)-N-phenylbenzamide]: the IC50 stood at 15.9 nM at BTK and 376 nM at ITK.

With `C=CC(=O)N1CCCC(n2nc(-c3ccc(Oc4ccccc4)cc3)c3c(N)ncc(/C=C/c4ccc(F)cc4)c32)C1` (centres unmarked) [Example 14, (E)-1-(3-(4-amino-7-(4-fluorostyryl)-3-(4-phenoxyphenyl)-1H-pyrazolo[4,3-c]pyridin-1-yl)piperidin-1-yl)prop-2-en-1-one], the figures for the IC50 at BTK and at ITK were 4.1 nM and 38.4 nM, respectively.

Consider `C=CC(=O)N1CCCC(n2nc(-c3ccc(Oc4ccccc4)cc3)c3c(N)ncc(I)c32)C1` (centres unmarked) [Example 5, 1-(3-(4-amino-7-iodo-3-(4-phenoxyphenyl)-1H-pyrazolo[4,3-c]pyridin-1-yl)piperidin-1-yl)prop-2-en-1-one], for which the IC50 at BTK was found to be 6.7 nM; on ITK, 19.5 nM.

For the compound `C=CC(=O)N1CCC[C@@H](n2nc(-c3ccc(C(=O)Nc4ccccn4)cc3Cl)c3c(N)ncc(Cl)c32)C1` [Example 58, (R)-4-(1-(1-acryloylpiperidin-3-yl)-4-amino-7-chloro-1H-pyrazolo[4,3-c]pyridin-3-yl)-3-chloro-N-(pyridin-2-yl)benzamide], the IC50 on BTK came out at 8.8 nM; on ITK, 9.3 nM.

In the case of `C=CC(=O)N1CCC[C@@H](n2nc(-c3ccc(C(=O)Nc4ccccn4)cc3)c3c(N)ncc(Br)c32)C1` [Example 20, (R)-4-(1-(1-acryloylpiperidin-3-yl)-4-amino-7-bromo-1H-pyrazolo[4,3-c]pyridin-3-yl)-N-(pyridin-2-yl)benzamide], the IC50 at BTK was 15.2 nM; at ITK it was more than 1000 nM.

With `C=CC(=O)N1CCC[C@@H](n2nc(C(=O)Nc3nc4cc(F)ccc4o3)c3c(N)ncc(Cl)c32)C1` [Example 76, (R)-1-(1-acryloylpiperidin-3-yl)-4-amino-7-chloro-N-(5-fluorobenzo[d]oxazol-2-yl)-1H-pyrazolo[4,3-c]pyridine-3-carboxamide], the concentration for half-maximal inhibition (IC50) amounted to 1.5 nM on BTK and 2.1 nM at ITK.
